In patent US20230255974A1, “USE OF THYROMIMETICS FOR THE TREATMENT OF CANCER” (THE UNIVERSITY OF VERMONT, priority 2020, published 2023):

What was measured:
[1] = test system: SW1736 cells (SW-EV, SW-TRβ); test: Growth assay (live cell imaging), T3; type: cell-based, human
Method: Culture of thyroid cell lines. Anaplastic thyroid cancer cell lines (SW1736 and KTC-2) were cultured in RPMI 1640 growth media with L-glutamine (300 mg/L), sodium pyruvate and nonessential amino acids (1%) (Cellgro/Mediatech), supplemented with 10% fetal bovine serum (Life Technologies) and penicillin-streptomycin ([…]) (Cellgro/Mediatech) at 37° C., 5% CO2, and 100% humidity. The cell lines were generously provided by Dr. John Copland III (Mayo Clinic). Lentivirally modified SW1736 cells were generated as recently described (Gillis et al., “Thyroid Hormone Receptor β Suppression of RUNX2 is Mediated by Brahma Related Gene 1 Dependent Chromatin Remodeling.” Endocrinol. 159(6):2484-94 (2018), which is hereby incorporated by reference in its entirety) with either an empty vector (SW-EV) or to overexpress TRβ (SW-TRβ). SW-EV and SW-TRβ were grown in the above conditions with the addition of 1 μg/ml puromycin (Gold Bio). All cells were authenticated by the Vermont Integrative Genomics Resource at the University of Vermont using short tandem repeat profiles and Promega GenePrint10 System (SW1736, May 2019; KTC-2, October 2019).
Growth Assays. Cell growth was measured either through live cell imaging or by cell counting at discrete points. Live cell imaging was used to assess the growth kinetics of SW-EV and SW-TRβ. To perform live cell imaging, 5000 cells were plated per well in 24 well plates. After 24 hours in phenol red free, charcoal stripped media, media was supplemented with either 10^−8 M T3 or equivolume vehicle (NaOH). Every two hours cells were imaged with a Lionheart automated microscope (BioTek) and quantified with Gen5 software (BioTek). The cells entered the log phase of growth at approximately 48 hours, and the portion of the curve following this point was used to calculate the doubling time of the cells. In order to measure growth manually, 25,000 cells were plated per well in a six well plate. […] Every 24 hours cell counts were assessed by hemocytometer.

[2] = test system: SW1736 cells (SW-EV, SW-TRβ); test: Migration (wound healing) assay, T3; type: cell-based, human; conditions: SW-TRβ treated with T3 vs SW-EV
Method: Migration Assay. Cell migration was determined by wound healing assay. Cells were plated and allowed to grow to 100% confluency. Two hours prior to scratching, cells were treated with […] Mitomycin C. A scratch was performed with a P1000 pipette tip and debris was washed away with PBS. Migration media was supplemented with 10^−8 M T3. Images were obtained at 0, 24, 48, and 72 hours. Wound closure was measured using ImageJ macro “Wound Healing Tool” (http://dev.mri.cnrs.fr/projects/imagej-macros/wiki/Wound_Healing_Tool). Values were normalized so that the initial scratch was 0% closure.

[3] = test system: SW1736 cells (SW-EV, SW-TRβ); test: Tumorsphere assay, T3; type: cell-based, human; conditions: 10^−8 M T3, seven days
[4] = test system: SW1736 cells (SW-EV, SW-TRβ); test: Apoptosis assay (PARP1 and caspase 3 cleavage, immunoblot); type: cell-based, human
From the text: Immunoblot Analysis. […] Proteins were resolved by polyacrylamide gel electrophoresis on 10% sodium dodecyl sulfate gels EC60752 (Life Technologies) and immobilized onto nitrocellulose membranes (GE Healthcare) by electroblot (Bio-Rad Laboratories). Specific proteins were detected by immunoblotting with the indicated antibodies (Table 4); immunoreactive proteins were detected by enhanced chemiluminescence (Thermo Scientific) on a ChemiDoc XRS+ (Bio-Rad Laboratories).
Apoptosis Assay. Cells were plated at a density of 50,000 cells/well and treated with vehicle (1 N NaOH) or 10^−8 M T3. After 5 days the cells were lysed for analysis by immunoblot. Poly (ADP-ribose) polymerase 1 (PARP1) and Caspase 3 cleavage were assessed to measure apoptotic signaling.
Immunoblot Analysis. […] Proteins were resolved by polyacrylamide gel electrophoresis on 10% sodium dodecyl sulfate gels EC60752 (Thermo Fisher Scientific) and immobilized onto nitrocellulose membranes (GE Healthcare, Chicago, Ill., USA) by electroblot (Bio-Rad Laboratories, Hercules, Calif., USA). Specific proteins were detected by immunoblotting with the indicated antibodies (Table 4); immunoreactive proteins were detected by enhanced chemiluminescence (Thermo Scientific) on a ChemiDoc XRS+ (Bio-Rad Laboratories).

[5] = test system: interferon/JAK1/STAT1 pathway; test: Interferon/JAK1/STAT1 pathway expression (immunoblot, qPCR); type: cell-based, human; conditions: SW-TRβ
Method: Immunoblot Analysis. Proteins were isolated from whole cells in lysis buffer (20 mM Tris-HCl [pH 8], 137 mM NaCl, 10% glycerol, 1% Triton X-100, and 2 mM EDTA) containing Protease Inhibitor Cocktail 78410 (Thermo Scientific). Proteins were resolved by polyacrylamide gel electrophoresis on 10% sodium dodecyl sulfate gels EC60752 (Life Technologies) and immobilized onto nitrocellulose membranes (GE Healthcare) by electroblot (Bio-Rad Laboratories). Specific proteins were detected by immunoblotting with the indicated antibodies (Table 4); immunoreactive proteins were detected by enhanced chemiluminescence (Thermo Scientific) on a ChemiDoc XRS+ (Bio-Rad Laboratories). RNA Extraction and Quantitative Real-Time PCR (qRT-PCR). Total RNA was extracted using RNeasy Plus Kit (Qiagen) according to manufacturer's protocol. cDNA was then generated using the 5×RT Mastermix (ABM). Gene expression to validate RNASeq analysis was quantified by qRT-PCR using 2×SuperGreen Mastermix (ABM) on a QuantStudio 3 real-time PCR system (Applied Biosystems). Fold change in gene expression compared to endogenous controls was calculated using the ddCT method.

[6] = test system: MDA-MB-468 cells (EV, TRβ); conditions: MDA-MB-468 in the presence of TRβ, 10 nM, 3 days
Method: Triple negative breast cancer were examined next. […] TNBC cancers and other advanced solid tumors have lower endogenous levels of expression of TRβ. […] Cell migration was measured by scratch assay (FIG. 28). […] Data are mean+/−SD; *indicates p<0.05 determined by t-test.

[7] = test system: NthyOri thyroid cells; conditions: normal-like NthyOri thyroid cells

With `N[C@@H](Cc1cc(I)c(Oc2ccc(O)c(I)c2)c(I)c1)C(=O)O` [T3, (2S)-2-amino-3-[4-(4-hydroxy-3-iodophenoxy)-3,5-diiodophenyl]propanoic acid] as the compound, how does the growth rate ([1]; SW-EV, 10^−8 M T3 vs vehicle) read?
The growth rate was “modestly decreased the growth rate”.

And the cellular growth ([1]; SW-TRβ (TRβ overexpression), 10^−8 M T3)?
The cellular growth was “profoundly reduced cellular growth”.

What about the doubling time ([1]; SW-TRβ, T3 treated) of the same compound?
The doubling time was “greatest doubling time”.

And the “scratch closure (AUC)” value [2]?
The value was “significantly reduced scratch closure”.

And the “number of tumorspheres formed” value ([3]; SW-EV)?
The value was “no effect on the number of tumorspheres”.

And the tumorsphere growth ([3]; SW-TRβ)?
The tumorsphere growth was “blocked almost all tumorsphere growth”.

What about the “caspase 3 and PARP1 cleavage” value ([4]; SW-EV and SW-TRβ, T3, 5 days) of the same compound?
The value was “induced cleavage of these apoptotic effectors only in SW-TRβ”.

And the “apoptosis (cleaved PARP and caspase)” value ([4]; SW-TRβ, five days)?
Its value is “induces apoptosis”.

What about the “expression of IRF1 target genes APOL6 and TNFSF10 (qPCR)” value ([5]; T3) of the same compound?
Its value is “Induction of IRF1 target genes APOL6 and TNFSF10”.

And the “expression of STAT1 target genes IRF1 and TAP1 (qPCR)” value ([5]; T3)?
Its value is “increased the expression of STAT1 target genes IRF1 and TAP1”.

What about the “expression of JAK1 and STAT1” value ([5]; T3 treatment) of the same compound?
The value was “significantly increased”.

What about the “cell migration and growth” value [6] of the same compound?
The value was “reduced cell migration and growth”.

What about the “cell phenotypic or signaling changes” value [7] of the same compound?
Its value is “No cell phenotypic changes or signaling changes were observed”.
